{"source": "BigSolDB 2.1", "data": [{"smiles": "O=P1(O)Oc2ccc3ccccc3c2-c2c(ccc3ccccc23)O1", "values": [{"measurement": "solubility (mole fraction)", "setting": "in ethanol, 288.15 K", "value": 0.00444}, {"measurement": "solubility (mole fraction)", "setting": "in ethanol, 293.15 K", "value": 0.00462}, {"measurement": "solubility (mole fraction)", "setting": "in ethanol, 298.15 K", "value": 0.00489}, {"measurement": "solubility (mole fraction)", "setting": "in ethanol, 303.15 K", "value": 0.00511}, {"measurement": "solubility (mole fraction)", "setting": "in ethanol, 308.15 K", "value": 0.00533}, {"measurement": "solubility (mole fraction)", "setting": "in ethanol, 313.15 K", "value": 0.00544}, {"measurement": "solubility (mole fraction)", "setting": "in ethanol, 318.15 K", "value": 0.00573}, {"measurement": "solubility (mole fraction)", "setting": "in ethanol, 323.15 K", "value": 0.00601}, {"measurement": "solubility (mole fraction)", "setting": "in ethanol, 328.15 K", "value": 0.00632}, {"measurement": "solubility (mole fraction)", "setting": "in ethanol, 333.15 K", "value": 0.00664}, {"measurement": "solubility (mole fraction)", "setting": "in ethyl acetate, 288.15 K", "value": 0.000286}, {"measurement": "solubility (mole fraction)", "setting": "in ethyl acetate, 293.15 K", "value": 0.000331}, {"measurement": "solubility (mole fraction)", "setting": "in ethyl acetate, 298.15 K", "value": 0.000387}, {"measurement": "solubility (mole fraction)", "setting": "in ethyl acetate, 303.15 K", "value": 0.000434}, {"measurement": "solubility (mole fraction)", "setting": "in ethyl acetate, 308.15 K", "value": 0.000491}, {"measurement": "solubility (mole fraction)", "setting": "in ethyl acetate, 313.15 K", "value": 0.000521}, {"measurement": "solubility (mole fraction)", "setting": "in ethyl acetate, 318.15 K", "value": 0.000555}, {"measurement": "solubility (mole fraction)", "setting": "in ethyl acetate, 323.15 K", "value": 0.000594}, {"measurement": "solubility (mole fraction)", "setting": "in ethyl acetate, 328.15 K", "value": 0.000618}, {"measurement": "solubility (mole fraction)", "setting": "in ethyl acetate, 333.15 K", "value": 0.000645}, {"measurement": "solubility (mole fraction)", "setting": "in isobutanol, 288.15 K", "value": 0.0035}, {"measurement": "solubility (mole fraction)", "setting": "in isobutanol, 293.15 K", "value": 0.00381}, {"measurement": "solubility (mole fraction)", "setting": "in isobutanol, 298.15 K", "value": 0.0041}, {"measurement": "solubility (mole fraction)", "setting": "in isobutanol, 303.15 K", "value": 0.0045}, {"measurement": "solubility (mole fraction)", "setting": "in isobutanol, 308.15 K", "value": 0.00491}, {"measurement": "solubility (mole fraction)", "setting": "in isobutanol, 313.15 K", "value": 0.00531}, {"measurement": "solubility (mole fraction)", "setting": "in isobutanol, 318.15 K", "value": 0.00575}, {"measurement": "solubility (mole fraction)", "setting": "in isobutanol, 323.15 K", "value": 0.00622}, {"measurement": "solubility (mole fraction)", "setting": "in isobutanol, 328.15 K", "value": 0.00672}, {"measurement": "solubility (mole fraction)", "setting": "in isobutanol, 333.15 K", "value": 0.00738}, {"measurement": "solubility (mole fraction)", "setting": "in isopropanol, 288.15 K", "value": 0.00339}, {"measurement": "solubility (mole fraction)", "setting": "in isopropanol, 293.15 K", "value": 0.00354}, {"measurement": "solubility (mole fraction)", "setting": "in isopropanol, 298.15 K", "value": 0.0038}, {"measurement": "solubility (mole fraction)", "setting": "in isopropanol, 303.15 K", "value": 0.00404}, {"measurement": "solubility (mole fraction)", "setting": "in isopropanol, 308.15 K", "value": 0.00445}, {"measurement": "solubility (mole fraction)", "setting": "in isopropanol, 313.15 K", "value": 0.00491}, {"measurement": "solubility (mole fraction)", "setting": "in isopropanol, 318.15 K", "value": 0.00563}, {"measurement": "solubility (mole fraction)", "setting": "in isopropanol, 323.15 K", "value": 0.00656}, {"measurement": "solubility (mole fraction)", "setting": "in isopropanol, 328.15 K", "value": 0.00763}, {"measurement": "solubility (mole fraction)", "setting": "in isopropanol, 333.15 K", "value": 0.00891}, {"measurement": "solubility (mole fraction)", "setting": "in methanol, 288.15 K", "value": 0.00336}, {"measurement": "solubility (mole fraction)", "setting": "in methanol, 293.15 K", "value": 0.00347}, {"measurement": "solubility (mole fraction)", "setting": "in methanol, 298.15 K", "value": 0.00373}, {"measurement": "solubility (mole fraction)", "setting": "in methanol, 303.15 K", "value": 0.00411}, {"measurement": "solubility (mole fraction)", "setting": "in methanol, 308.15 K", "value": 0.00452}, {"measurement": "solubility (mole fraction)", "setting": "in methanol, 313.15 K", "value": 0.00486}, {"measurement": "solubility (mole fraction)", "setting": "in methanol, 318.15 K", "value": 0.0052}, {"measurement": "solubility (mole fraction)", "setting": "in methanol, 323.15 K", "value": 0.00555}, {"measurement": "solubility (mole fraction)", "setting": "in methanol, 328.15 K", "value": 0.00607}, {"measurement": "solubility (mole fraction)", "setting": "in methanol, 333.15 K", "value": 0.00658}, {"measurement": "solubility (mole fraction)", "setting": "in n-butanol, 288.15 K", "value": 0.00698}, {"measurement": "solubility (mole fraction)", "setting": "in n-butanol, 293.15 K", "value": 0.00709}, {"measurement": "solubility (mole fraction)", "setting": "in n-butanol, 298.15 K", "value": 0.0073}, {"measurement": "solubility (mole fraction)", "setting": "in n-butanol, 303.15 K", "value": 0.00763}, {"measurement": "solubility (mole fraction)", "setting": "in n-butanol, 308.15 K", "value": 0.00802}, {"measurement": "solubility (mole fraction)", "setting": "in n-butanol, 313.15 K", "value": 0.00844}, {"measurement": "solubility (mole fraction)", "setting": "in n-butanol, 318.15 K", "value": 0.00887}, {"measurement": "solubility (mole fraction)", "setting": "in n-butanol, 323.15 K", "value": 0.00932}, {"measurement": "solubility (mole fraction)", "setting": "in n-butanol, 328.15 K", "value": 0.00996}, {"measurement": "solubility (mole fraction)", "setting": "in n-butanol, 333.15 K", "value": 0.0107}, {"measurement": "solubility (mole fraction)", "setting": "in n-propanol, 288.15 K", "value": 0.00484}, {"measurement": "solubility (mole fraction)", "setting": "in n-propanol, 293.15 K", "value": 0.0053}, {"measurement": "solubility (mole fraction)", "setting": "in n-propanol, 298.15 K", "value": 0.00588}, {"measurement": "solubility (mole fraction)", "setting": "in n-propanol, 303.15 K", "value": 0.00652}, {"measurement": "solubility (mole fraction)", "setting": "in n-propanol, 308.15 K", "value": 0.00731}, {"measurement": "solubility (mole fraction)", "setting": "in n-propanol, 313.15 K", "value": 0.00832}, {"measurement": "solubility (mole fraction)", "setting": "in n-propanol, 318.15 K", "value": 0.00942}, {"measurement": "solubility (mole fraction)", "setting": "in n-propanol, 323.15 K", "value": 0.0106}, {"measurement": "solubility (mole fraction)", "setting": "in n-propanol, 328.15 K", "value": 0.0123}, {"measurement": "solubility (mole fraction)", "setting": "in n-propanol, 333.15 K", "value": 0.0142}]}]}
